Assay results: patent US6849598B1, “Therapeutic compositions comprising bactericidal/permeability-increasing (BPI) protein products” (XOMA, priority 1995, dated 2005)
In brackets after ≈: the same amount, converted by molar mass. Where two headings read alike, the source gives them in different places.

Key:
E. faecium = test: Antibiotic susceptibility (MIC, Sensititre Trays) with rBPI21 poloxamer formulations; type: cell-based; conditions: for MIC: Enterococcus faecium, read-out: Minimum Inhibitory Concentration
Experimental: The effect of therapeutic compositions of rBPI21 formulated with poloxamer, with or without EDTA, was evaluated on the antibiotic susceptibility of the multiple drug resistant A. baumannii, S. pneumoniae, E. faecium and P. aeruginosa organisms of Example 5. Therapeutic compositions were prepared containing 2 mg/mL rBPI21, (5 mM sodium citrate, 150 mM NaCl) with a 0.2% (w/v) concentration of PLURONIC F68, P103, P104, P105 or P123. The effect on the antibiotic susceptibility of the organisms was determined in Mueller-Hinton Broth plus Cations (CSMHB, Remel), or 40% pooled human serum in CSMHB (Sigma, St. Louis, Mo.), as follows.
Isolated colonies of the organism from overnight cultures were suspended in Microscan® Inoculum Water to a concentration equivalent to a 0.5 McFarland Standard (approximately 1×10^8 CFU/ml), determined using a Microscan® turbidimeter. Aliquots were transferred to either CSMHB or 40% pooled human serum in CSMHB. Each tube contained either a final concentration of 16 μg/mL rBPI21 or an equivalent volume of control buffer. Minimal inhibitory concentrations (MIC) for each antibiotic tested, i.e. the lowest concentration of antibiotic which inhibits visible growth, were determined using gram-negative (MB and MC) and gram-positive (MA) Sensititre Trays (Radiometer America, Westlake, Ohio), which allow for the rapid and simultaneous survey of a broad spectrum of standard antibiotics. Any other antimicrobial panel systems known in the art, such as the Microscan® (Dade Microscan, Sacramento, Calif.), Pasco (DIFCO, Detroit, Mich.) and Alamar (Alamar, Sacramento, Calif.) systems, may alternatively be used to assay for antibiotic susceptibility.
Tables 12-15 below display a summary of the results of the antibiotic screening panels, reported for each strain tested as the MIC of the tested antibiotics in the presence of the indicated rBPI21 therapeutic composition. The antibiotic susceptibility standards (interpretation of an MIC as clinically resistant (R), intermediate (I) or susceptible (S) according to NCCLS standards) applicable to the organism tested appear in superscript next to the MIC.

[1] = test system: P. aeruginosa (ATCC 19660); test: Antibiotic susceptibility (MIC, Microscan® MIC Plus Type 2 panel) with rBPI21/P123 and EDTA; type: cell-based; set-up: key to susceptibility interpretation of MIC (superscript): R: resistant; I: intermediate; S: susceptible
Experimental: In additional experiments, a BPI protein product, rBPI21, was formulated with an anti-bacterial activity enhancing poloxamer, specifically PLURONIC P123, and with various concentrations of EDTA, and was evaluated for its effect on the antibiotic susceptibility of a Pseudomonas aeruginosa (ATCC 19660). Antibiotic susceptibility was determined using Microscan® panel plates (Dade Microscan, West Sacramento, Calif.) that allow simultaneous determination of minimum inhibitory concentrations for a number of different antibiotics.
The antimicrobial susceptibility tests performed on the Microscan® panel plates are miniaturizations of the broth dilution susceptibility test. Antimicrobial agents are serially diluted in Mueller-Hinton broth (supplemented with calcium and magnesium, or with sodium chloride for oxacillin, or with thymidine phosphorylase for trimethoprim, sulfamethoxazole and trimethoprim/ sulfamethoxazole) to concentrations bridging the range of clinical interest. One well on the 96-well Microscan® plate is a growth control well that contains dehydrated broth only. The remaining wells contain dehydrated broth and antibiotic (or broth and biochemical reagent indicator), which is rehydrated to the desired concentration by inoculation of a standardized suspension of test organism. The chromogenic biochemical agent indicators are used to identify and characterize the species of bacteria based on detection of pH changes and substrate utilization. […] Gram-negative and gram positive organisms may be tested using any of the Microscan® panel plates (Microscan®, Dade Microscan, West Sacramento, Calif.). In these experiments with P. aeruginosa, the MIC Plus Type 2 panel plates were used. The concentrations of antibiotics tested in this panel plate are shown below in Table 16. The antibiotic susceptibility standards (interpretation of an MIC as resistant, intermediate or susceptible according to Microscan®'s NCCLS-derived standards) applicable to the gram-negative organisms that may be tested in each panel plate appear below in Table 16A.
For these experiments with P. aeruginosa, the following procedure was performed: The organism was streaked onto TSA plates (Remel, Lenexa, Kans.) and incubated for 18-24 hours overnight. Well-isolated A, colonies from the plates were emulsified in 3 ml of sterile Inoculum Water d(catalog no. B1015-2, MicrosScan® system, Dade Microscan, West Sacramento, Calif.) to a final turbidity equivalent to 0.5 McFarland Barium Sulfate standard. This cell suspension was vortexed for 2 to 3 seconds and 100 μl was transferred to glass tubes containing 25 ml of Inoculum Water with Pluronic-D (catalog no. B1015-7, MicroScan® system, Dade Microscan, West Sacramento, Calif.) (hereinafter “Pluronic Inoculum Water”), or 25 ml of Pluronic Inoculum Water into which rBPI21 in 0.2% PLURONIC P123, 0.002% TWEEN 80, 5mM sodium citrate, 150 mM NaCl (“rBPI21/P123”) had been diluted to 64 μg/ml rBPI21.
The 25 ml of this inoculum containing rBPI21 was mixed by inversion and poured into a tray. The inoculum was drawn up into a manual 96-well pipetting system (RENOK^− rehydrator-inoculator system, Dade Microscan, West Sacramento, Calif.) designed for use with the Microscan® panel plates, and 110 μl of the inoculum was delivered to each well of a Microscan® MIC Plus Type 2 panel plate. When added to the wells, this inoculum achieves a final bacterial concentration of 4×10^5 to 7×10^5 CFU/ml. The panel plates were then incubated at 35° C. for 15-24 hours and read visually for cell growth.
No growth was defined as a slight whiteness in the well or a clear broth. Growth appeared as turbidity which could take the form of a white haze throughout the well, a white button in the center of the well, or a fine granule growth throughout the well. All wells were read against a black indirectly lighted background. Visual results of the biochemical reactions were read into a database for bacterial identification.

[2] = CSMHB, 16 μg/mL rBPI21 with F68
[3] = CSMHB, 16 μg/mL rBPI21 with P103
[4] = CSMHB, 16 μg/mL rBPI21 with P104
[5] = CSMHB, 16 μg/mL rBPI21 with P105
[6] = CSMHB, 16 μg/mL rBPI21 with P123
[7] = Serum, 16 μg/mL rBPI21 with F68
[8] = Serum, 16 μg/mL rBPI21 with P103
[9] = Serum, 16 μg/mL rBPI21 with P104
[10] = Serum, 16 μg/mL rBPI21 with P105
[11] = Serum, 16 μg/mL rBPI21 with P123
[12] = rBPI21/P123 at 64 μg/ml rBPI21, With 0% EDTA
[13] = rBPI21/P123 at 64 μg/ml rBPI21, With 0.01% EDTA
[14] = rBPI21/P123 at 64 μg/ml rBPI21, With 0.05% EDTA
[15] = rBPI21/P123 at 64 μg/ml rBPI21, With 0.1% EDTA

CO[C@H]1/C=C/O[C@@]2(C)Oc3c(C)c(O)c4c(O)c(c(/C=N/N5CCN(C)CC5)c(O)c4c3C2=O)NC(=O)/C(C)=C\C=C\[C@H](C)[C@H](O)[C@@H](C)[C@@H](O)[C@@H](C)[C@H](OC(C)=O)[C@@H]1C [Rifampicin]
susceptibility interpretation of MIC (superscript) (E. faecium; [2]): S | susceptibility interpretation of MIC (superscript) (E. faecium; [3]): S | susceptibility interpretation of MIC (superscript) (E. faecium; [4]): S | susceptibility interpretation of MIC (superscript) (E. faecium; [5]): S | susceptibility interpretation of MIC (superscript) (E. faecium; [6]): S | susceptibility interpretation of MIC (superscript) (E. faecium; CSMHB, Control (no BPI)): R | MIC (E. faecium; [2]): 0.5 µg/mL (≈ 0.608 µM) | MIC (E. faecium; [3]): 0.5 µg/mL (≈ 0.608 µM) | MIC (E. faecium; [4]): 0.5 µg/mL (≈ 0.608 µM) | MIC (E. faecium; [5]): 0.5 µg/mL (≈ 0.608 µM) | MIC (E. faecium; [6]): 0.5 µg/mL (≈ 0.608 µM) | MIC (E. faecium; CSMHB, Control (no BPI)): 4 µg/mL (≈ 4.86 µM) | MIC (E. faecium; [7]): 1 µg/mL (≈ 1.22 µM) | MIC (E. faecium; [8]): 1 µg/mL (≈ 1.22 µM) | MIC (E. faecium; [9]): > 4 µg/mL | MIC (E. faecium; [10]): 0.5 µg/mL (≈ 0.608 µM) | MIC (E. faecium; [11]): 0.5 µg/mL (≈ 0.608 µM) | MIC (E. faecium; Serum, Control (no BPI)): 4 µg/mL (≈ 4.86 µM) | susceptibility interpretation of MIC (superscript) (E. faecium; [7]): S | susceptibility interpretation of MIC (superscript) (E. faecium; [8]): S | susceptibility interpretation of MIC (superscript) (E. faecium; [9]): R | susceptibility interpretation of MIC (superscript) (E. faecium; [10]): S | susceptibility interpretation of MIC (superscript) (E. faecium; [11]): S | susceptibility interpretation of MIC (superscript) (E. faecium; Serum, Control (no BPI)): R

O=C(O)c1cn(C2CC2)c2cc(N3CCNCC3)c(F)cc2c1=O [Ciprofloxacin]
Minimum Inhibitory Concentration of Antibiotic ([1]; Control (No BPI21)): < 0.25 µg/mL | susceptibility interpretation of MIC (superscript) ([1]; Control (No BPI21)): S | Minimum Inhibitory Concentration of Antibiotic [1, 12]: < 0.25 µg/mL | susceptibility interpretation of MIC (superscript) [1, 12]: S | Minimum Inhibitory Concentration of Antibiotic [1, 13]: < 0.25 µg/mL | susceptibility interpretation of MIC (superscript) [1, 13]: S | Minimum Inhibitory Concentration of Antibiotic [1, 14]: < 0.25 µg/mL | susceptibility interpretation of MIC (superscript) [1, 14]: S | Minimum Inhibitory Concentration of Antibiotic [1, 15]: < 0.25 µg/mL | susceptibility interpretation of MIC (superscript) [1, 15]: S | susceptibility interpretation of MIC (superscript) (E. faecium; [2]): S | susceptibility interpretation of MIC (superscript) (E. faecium; [3]): S | susceptibility interpretation of MIC (superscript) (E. faecium; [4]): S | susceptibility interpretation of MIC (superscript) (E. faecium; [5]): S | susceptibility interpretation of MIC (superscript) (E. faecium; [6]): S | susceptibility interpretation of MIC (superscript) (E. faecium; CSMHB, Control (no BPI)): I | MIC (E. faecium; [2]): 1 µg/mL (≈ 3.02 µM) | MIC (E. faecium; [3]): < 0.5 µg/mL | MIC (E. faecium; [4]): 1 µg/mL (≈ 3.02 µM) | MIC (E. faecium; [5]): 1 µg/mL (≈ 3.02 µM) | MIC (E. faecium; [6]): 1 µg/mL (≈ 3.02 µM) | MIC (E. faecium; CSMHB, Control (no BPI)): 2 µg/mL (≈ 6.04 µM) | susceptibility interpretation of MIC (superscript) (E. faecium; [7]): S | susceptibility interpretation of MIC (superscript) (E. faecium; [8]): I | susceptibility interpretation of MIC (superscript) (E. faecium; [9]): I | susceptibility interpretation of MIC (superscript) (E. faecium; [10]): I | susceptibility interpretation of MIC (superscript) (E. faecium; [11]): I | susceptibility interpretation of MIC (superscript) (E. faecium; Serum, Control (no BPI)): I

CCN[C@@H]1C[C@H](N)[C@@H](O[C@H]2OC(CN)=CC[C@H]2N)[C@H](O)[C@H]1O[C@H]1OC[C@](C)(O)[C@H](NC)[C@H]1O [Netilmicin]
Minimum Inhibitory Concentration of Antibiotic ([1]; Control (No BPI21)): 4 µg/mL | susceptibility interpretation of MIC (superscript) ([1]; Control (No BPI21)): S | Minimum Inhibitory Concentration of Antibiotic [1, 12]: < 2 µg/mL | susceptibility interpretation of MIC (superscript) [1, 12]: S | Minimum Inhibitory Concentration of Antibiotic [1, 13]: < 2 µg/mL | susceptibility interpretation of MIC (superscript) [1, 13]: S | Minimum Inhibitory Concentration of Antibiotic [1, 14]: < 2 µg/mL | susceptibility interpretation of MIC (superscript) [1, 14]: S | Minimum Inhibitory Concentration of Antibiotic [1, 15]: < 2 µg/mL | susceptibility interpretation of MIC (superscript) [1, 15]: S

Ticarcillin/K Clavulanate [Ticar/K Clavulanate]
Minimum Inhibitory Concentration of Antibiotic ([1]; Control (No BPI21)): < 16 µg/mL | susceptibility interpretation of MIC (superscript) ([1]; Control (No BPI21)): S | Minimum Inhibitory Concentration of Antibiotic [1, 12]: < 16 µg/mL | susceptibility interpretation of MIC (superscript) [1, 12]: S | Minimum Inhibitory Concentration of Antibiotic [1, 13]: < 16 µg/mL | susceptibility interpretation of MIC (superscript) [1, 13]: S | Minimum Inhibitory Concentration of Antibiotic [1, 14]: < 16 µg/mL | susceptibility interpretation of MIC (superscript) [1, 14]: S | Minimum Inhibitory Concentration of Antibiotic [1, 15]: < 16 µg/mL | susceptibility interpretation of MIC (superscript) [1, 15]: S

CC1(C)S[C@@H]2[C@H](NC(=O)[C@H](NC(=O)N3CCN(S(C)(=O)=O)C3=O)c3ccccc3)C(=O)N2[C@H]1C(=O)O [Mezlocillin]
Minimum Inhibitory Concentration of Antibiotic ([1]; Control (No BPI21)): < 16 µg/mL | susceptibility interpretation of MIC (superscript) ([1]; Control (No BPI21)): S | Minimum Inhibitory Concentration of Antibiotic [1, 12]: < 16 µg/mL | susceptibility interpretation of MIC (superscript) [1, 12]: S | Minimum Inhibitory Concentration of Antibiotic [1, 13]: < 16 µg/mL | susceptibility interpretation of MIC (superscript) [1, 13]: S | Minimum Inhibitory Concentration of Antibiotic [1, 14]: < 16 µg/mL | susceptibility interpretation of MIC (superscript) [1, 14]: S | Minimum Inhibitory Concentration of Antibiotic [1, 15]: < 16 µg/mL | susceptibility interpretation of MIC (superscript) [1, 15]: S
